Assay [1] deals with Tyrosine-protein kinase BTK (Homo sapiens, UniProt Q06187). Nature of the assay: Selectivity interaction (KinomeScan (DiscoverX)) EUB0001619a BTK. The following applies: at 1 µM.
The target of assay [2] is Fibroblast growth factor receptor 2 (Homo sapiens) (UniProt P21802). Nature of the assay: Selectivity interaction (KinomeScan (DiscoverX)) EUB0000666a FGFR2. The following applies: at 10 µM.
For assay [3], the target named is T1, Histone-arginine methyltransferase CARM1 (Homo sapiens) (UniProt Q86X55).
T1 sequence (whole entry): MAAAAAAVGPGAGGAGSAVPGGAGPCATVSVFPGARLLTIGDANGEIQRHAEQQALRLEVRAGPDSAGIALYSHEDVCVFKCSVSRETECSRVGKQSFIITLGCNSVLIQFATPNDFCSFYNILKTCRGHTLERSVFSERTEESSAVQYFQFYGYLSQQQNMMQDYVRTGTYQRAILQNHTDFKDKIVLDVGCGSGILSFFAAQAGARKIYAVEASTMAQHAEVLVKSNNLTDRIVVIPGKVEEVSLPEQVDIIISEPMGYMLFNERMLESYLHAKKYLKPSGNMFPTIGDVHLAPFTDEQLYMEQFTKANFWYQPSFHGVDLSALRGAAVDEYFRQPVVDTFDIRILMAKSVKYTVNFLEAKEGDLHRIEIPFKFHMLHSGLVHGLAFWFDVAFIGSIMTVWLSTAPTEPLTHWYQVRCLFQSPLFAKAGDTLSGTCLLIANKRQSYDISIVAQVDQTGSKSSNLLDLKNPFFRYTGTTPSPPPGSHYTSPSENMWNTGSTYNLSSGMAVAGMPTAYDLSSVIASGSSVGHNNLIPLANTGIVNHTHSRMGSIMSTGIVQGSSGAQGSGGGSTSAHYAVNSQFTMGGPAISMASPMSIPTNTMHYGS
The following applies: KMS-27, at 3 µM.

Assay [4] has as its target Mitogen-activated protein kinase 8 (Homo sapiens, UniProt P45983). The assay can be described thus: Selectivity interaction (Kinase panel (literature)) EUB0001199aCl MAPK8. Particulars: at 1 µM.
The target of assay [5] is Serine/threonine-protein kinase PAK 6 (Homo sapiens) (UniProt Q9NQU5). Nature of the assay: Selectivity interaction (ProQinase) EUB0000171b PAK6.
Assay [6] has as its target RAC-alpha serine/threonine-protein kinase (Homo sapiens, UniProt P31749). Nature of the assay: Selectivity interaction (Upstate Kinase Profiler service (Millipore)) EUB0000056c AKT1. Particulars: at 1 µM.
The target of assay [7] is Serine/threonine-protein kinase 26 (Homo sapiens, UniProt Q9P289). Nature of the assay: Selectivity interaction (KinomeScan (DiscoverX)) EUB0000618a STK26. Particulars: at 10 µM.
Assay [8] has as its target Protein kinase C eta type (Homo sapiens) (UniProt P24723). The assay can be described thus: Selectivity interaction (KinomeScan (DiscoverX)) EUB0000618a PRKCH. Particulars: at 10 µM.
Assay [9] has as its target cAMP-dependent protein kinase catalytic subunit alpha (Homo sapiens, UniProt P17612). The assay can be described thus: Selectivity interaction (KinomeScan (DiscoverX)) EUB0000092b PRKACA. The following applies: at 10 µM.
For assay [10], the target named is Tyrosine-protein kinase receptor UFO (Homo sapiens) (UniProt P30530). The assay can be described thus: Selectivity interaction (KinomeScan (DiscoverX)) EUB0000092b AXL. The following applies: at 10 µM.
Assay [11] has as its target T2, Serine/threonine-protein kinase Nek1 (Homo sapiens) (UniProt Q96PY6).
T2 sequence (whole entry): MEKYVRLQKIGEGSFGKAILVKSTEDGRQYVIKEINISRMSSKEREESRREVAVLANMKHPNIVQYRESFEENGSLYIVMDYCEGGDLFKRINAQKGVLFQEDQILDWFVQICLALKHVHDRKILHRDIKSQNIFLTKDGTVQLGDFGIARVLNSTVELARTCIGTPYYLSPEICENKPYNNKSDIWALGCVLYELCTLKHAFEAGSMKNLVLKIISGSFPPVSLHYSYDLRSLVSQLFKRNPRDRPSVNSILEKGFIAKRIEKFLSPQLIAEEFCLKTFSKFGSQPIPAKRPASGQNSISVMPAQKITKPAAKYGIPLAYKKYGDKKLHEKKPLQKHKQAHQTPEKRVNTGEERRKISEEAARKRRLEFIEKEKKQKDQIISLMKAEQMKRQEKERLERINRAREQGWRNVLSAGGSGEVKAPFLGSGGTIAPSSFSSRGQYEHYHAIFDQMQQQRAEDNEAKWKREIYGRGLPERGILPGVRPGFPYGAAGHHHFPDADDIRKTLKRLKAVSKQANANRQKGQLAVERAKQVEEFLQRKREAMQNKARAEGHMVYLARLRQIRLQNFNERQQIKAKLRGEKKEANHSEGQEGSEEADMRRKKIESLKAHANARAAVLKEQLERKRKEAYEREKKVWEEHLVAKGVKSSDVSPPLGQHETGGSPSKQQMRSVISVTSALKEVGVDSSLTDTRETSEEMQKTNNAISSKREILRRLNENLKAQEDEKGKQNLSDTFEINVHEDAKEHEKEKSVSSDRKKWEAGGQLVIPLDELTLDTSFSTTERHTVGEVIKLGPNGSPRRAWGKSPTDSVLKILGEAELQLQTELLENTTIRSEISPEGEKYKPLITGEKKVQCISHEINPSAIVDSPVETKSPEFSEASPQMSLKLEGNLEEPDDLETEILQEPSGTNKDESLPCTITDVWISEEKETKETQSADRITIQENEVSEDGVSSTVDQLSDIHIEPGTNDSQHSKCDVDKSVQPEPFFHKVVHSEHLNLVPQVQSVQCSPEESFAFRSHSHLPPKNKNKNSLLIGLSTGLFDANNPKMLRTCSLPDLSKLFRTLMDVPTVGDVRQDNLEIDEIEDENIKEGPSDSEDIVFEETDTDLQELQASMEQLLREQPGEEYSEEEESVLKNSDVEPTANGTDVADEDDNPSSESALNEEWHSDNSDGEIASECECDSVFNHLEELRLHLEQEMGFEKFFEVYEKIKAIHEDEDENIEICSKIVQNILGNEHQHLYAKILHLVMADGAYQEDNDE
Nature of the assay: Selectivity interaction (Kinase panel (DSF assay)) EUB0001558a NEK1.

The results in this text go back to ChEMBL document CHEMBL5465560, “Selectivity Literature for EUbOPEN Chemogenomic Library” (2024).

Sequence of Serine/threonine-protein kinase PAK 6 (Homo sapiens) (Q9NQU5 whole entry, looked up): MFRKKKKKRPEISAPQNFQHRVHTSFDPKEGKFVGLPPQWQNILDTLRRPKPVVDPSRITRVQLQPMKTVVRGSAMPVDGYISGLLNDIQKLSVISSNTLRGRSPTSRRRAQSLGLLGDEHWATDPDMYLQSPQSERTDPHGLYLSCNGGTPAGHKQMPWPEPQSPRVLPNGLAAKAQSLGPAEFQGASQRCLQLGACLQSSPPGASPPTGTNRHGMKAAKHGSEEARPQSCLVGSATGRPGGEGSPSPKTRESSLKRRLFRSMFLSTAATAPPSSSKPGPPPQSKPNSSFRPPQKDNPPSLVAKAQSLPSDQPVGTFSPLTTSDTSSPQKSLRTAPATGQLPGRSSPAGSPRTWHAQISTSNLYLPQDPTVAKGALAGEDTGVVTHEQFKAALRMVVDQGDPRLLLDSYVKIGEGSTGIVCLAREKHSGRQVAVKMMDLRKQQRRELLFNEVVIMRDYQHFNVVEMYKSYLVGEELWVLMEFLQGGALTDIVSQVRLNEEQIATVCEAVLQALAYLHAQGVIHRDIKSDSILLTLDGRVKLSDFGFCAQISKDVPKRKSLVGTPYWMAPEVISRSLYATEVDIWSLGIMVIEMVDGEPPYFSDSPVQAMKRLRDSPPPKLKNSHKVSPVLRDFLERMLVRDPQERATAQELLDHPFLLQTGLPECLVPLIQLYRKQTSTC
Sequence of RAC-alpha serine/threonine-protein kinase (P31749 whole entry): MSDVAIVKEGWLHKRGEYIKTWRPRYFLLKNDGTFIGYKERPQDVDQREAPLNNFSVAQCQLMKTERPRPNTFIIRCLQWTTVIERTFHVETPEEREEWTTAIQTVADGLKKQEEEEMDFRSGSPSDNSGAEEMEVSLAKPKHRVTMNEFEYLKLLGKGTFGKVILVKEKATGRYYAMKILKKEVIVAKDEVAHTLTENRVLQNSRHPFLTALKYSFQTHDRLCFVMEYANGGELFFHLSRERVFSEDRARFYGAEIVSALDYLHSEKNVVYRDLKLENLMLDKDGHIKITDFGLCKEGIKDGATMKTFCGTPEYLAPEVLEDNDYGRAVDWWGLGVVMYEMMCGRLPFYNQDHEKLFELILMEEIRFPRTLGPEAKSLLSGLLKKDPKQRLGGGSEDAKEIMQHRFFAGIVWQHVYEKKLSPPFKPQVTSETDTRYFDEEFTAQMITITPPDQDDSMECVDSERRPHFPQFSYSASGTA
Sequence of Protein kinase C eta type (Homo sapiens) (P24723 whole entry): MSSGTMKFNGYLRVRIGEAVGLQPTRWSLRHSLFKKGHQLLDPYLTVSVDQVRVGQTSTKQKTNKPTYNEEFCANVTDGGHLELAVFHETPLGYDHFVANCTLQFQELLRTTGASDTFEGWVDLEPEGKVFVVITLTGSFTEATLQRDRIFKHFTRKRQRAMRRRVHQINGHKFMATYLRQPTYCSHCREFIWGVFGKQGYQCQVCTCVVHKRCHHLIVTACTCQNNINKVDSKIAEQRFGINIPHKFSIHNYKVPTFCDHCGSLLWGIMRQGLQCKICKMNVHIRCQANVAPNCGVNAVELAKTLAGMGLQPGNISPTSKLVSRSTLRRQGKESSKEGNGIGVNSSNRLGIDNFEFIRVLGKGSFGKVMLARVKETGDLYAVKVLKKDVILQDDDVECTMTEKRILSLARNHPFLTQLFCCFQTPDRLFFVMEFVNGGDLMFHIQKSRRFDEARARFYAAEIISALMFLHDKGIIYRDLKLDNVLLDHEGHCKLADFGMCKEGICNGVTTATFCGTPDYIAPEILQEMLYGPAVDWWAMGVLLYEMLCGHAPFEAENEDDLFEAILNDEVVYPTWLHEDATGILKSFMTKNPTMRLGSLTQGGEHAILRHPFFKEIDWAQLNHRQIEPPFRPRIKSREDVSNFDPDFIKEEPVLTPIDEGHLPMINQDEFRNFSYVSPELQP
Sequence of Fibroblast growth factor receptor 2 (Homo sapiens) (P21802 22-821 limits assumed): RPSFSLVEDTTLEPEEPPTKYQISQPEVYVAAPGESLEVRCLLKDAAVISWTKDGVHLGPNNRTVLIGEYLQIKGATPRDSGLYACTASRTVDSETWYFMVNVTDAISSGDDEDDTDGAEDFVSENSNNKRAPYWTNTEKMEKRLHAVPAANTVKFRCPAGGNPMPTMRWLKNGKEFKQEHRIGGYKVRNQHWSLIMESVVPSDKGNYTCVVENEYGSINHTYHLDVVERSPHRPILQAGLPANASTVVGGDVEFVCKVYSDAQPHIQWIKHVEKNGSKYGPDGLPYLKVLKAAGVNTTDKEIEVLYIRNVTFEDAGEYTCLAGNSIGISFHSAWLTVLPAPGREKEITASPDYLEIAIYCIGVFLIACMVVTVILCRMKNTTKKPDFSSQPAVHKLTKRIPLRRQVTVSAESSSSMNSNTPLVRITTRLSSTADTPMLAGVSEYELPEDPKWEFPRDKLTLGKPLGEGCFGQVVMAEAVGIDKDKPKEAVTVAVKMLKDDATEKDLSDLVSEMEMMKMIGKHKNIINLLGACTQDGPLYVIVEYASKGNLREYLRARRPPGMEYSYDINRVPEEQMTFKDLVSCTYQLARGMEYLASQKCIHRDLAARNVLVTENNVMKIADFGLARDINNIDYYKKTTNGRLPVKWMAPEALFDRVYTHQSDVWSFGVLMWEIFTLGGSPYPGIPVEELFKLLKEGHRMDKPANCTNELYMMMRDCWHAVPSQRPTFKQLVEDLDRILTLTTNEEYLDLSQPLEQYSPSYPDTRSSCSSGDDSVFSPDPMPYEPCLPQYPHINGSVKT
Sequence of Tyrosine-protein kinase BTK (Q06187 whole entry): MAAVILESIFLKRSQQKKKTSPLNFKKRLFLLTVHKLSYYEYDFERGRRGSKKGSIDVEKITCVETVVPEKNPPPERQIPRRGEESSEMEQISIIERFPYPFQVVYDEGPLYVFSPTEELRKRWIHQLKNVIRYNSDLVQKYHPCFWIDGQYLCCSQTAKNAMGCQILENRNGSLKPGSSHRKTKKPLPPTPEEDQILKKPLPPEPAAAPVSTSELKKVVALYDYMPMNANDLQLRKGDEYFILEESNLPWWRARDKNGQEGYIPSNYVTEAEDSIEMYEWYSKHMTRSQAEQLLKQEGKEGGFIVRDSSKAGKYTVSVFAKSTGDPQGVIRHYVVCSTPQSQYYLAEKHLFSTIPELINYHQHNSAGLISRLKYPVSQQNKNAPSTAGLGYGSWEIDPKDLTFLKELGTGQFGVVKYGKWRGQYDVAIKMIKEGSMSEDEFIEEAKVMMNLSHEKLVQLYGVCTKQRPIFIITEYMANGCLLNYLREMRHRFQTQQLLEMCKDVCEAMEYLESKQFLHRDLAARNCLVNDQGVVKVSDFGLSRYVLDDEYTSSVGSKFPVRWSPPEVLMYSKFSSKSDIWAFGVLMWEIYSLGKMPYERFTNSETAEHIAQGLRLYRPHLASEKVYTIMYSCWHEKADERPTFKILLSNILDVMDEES
Sequence of Tyrosine-protein kinase receptor UFO (Homo sapiens) (P30530 whole entry): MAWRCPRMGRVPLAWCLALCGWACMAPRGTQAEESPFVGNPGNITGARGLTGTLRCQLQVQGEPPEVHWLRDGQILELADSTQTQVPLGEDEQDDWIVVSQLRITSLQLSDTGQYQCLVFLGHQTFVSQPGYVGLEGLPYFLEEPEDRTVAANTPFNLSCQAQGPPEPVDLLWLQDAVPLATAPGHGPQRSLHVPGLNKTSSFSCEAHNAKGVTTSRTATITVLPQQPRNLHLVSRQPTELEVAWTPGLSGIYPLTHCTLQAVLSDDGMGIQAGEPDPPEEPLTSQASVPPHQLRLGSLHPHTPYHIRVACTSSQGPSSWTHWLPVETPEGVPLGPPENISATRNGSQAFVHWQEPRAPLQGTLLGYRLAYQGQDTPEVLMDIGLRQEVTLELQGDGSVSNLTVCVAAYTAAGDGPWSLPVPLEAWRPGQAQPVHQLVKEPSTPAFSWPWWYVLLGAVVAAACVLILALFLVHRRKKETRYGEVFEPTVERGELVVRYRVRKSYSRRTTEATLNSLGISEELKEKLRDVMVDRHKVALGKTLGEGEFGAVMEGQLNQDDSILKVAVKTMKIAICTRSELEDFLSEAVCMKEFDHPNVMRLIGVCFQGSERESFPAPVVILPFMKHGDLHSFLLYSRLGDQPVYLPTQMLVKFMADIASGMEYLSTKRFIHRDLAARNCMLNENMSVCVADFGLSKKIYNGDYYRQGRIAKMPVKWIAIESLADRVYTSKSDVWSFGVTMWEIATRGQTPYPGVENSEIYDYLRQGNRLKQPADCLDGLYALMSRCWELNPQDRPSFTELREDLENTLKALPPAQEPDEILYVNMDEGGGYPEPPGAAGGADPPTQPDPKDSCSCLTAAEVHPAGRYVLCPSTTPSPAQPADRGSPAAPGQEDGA
Sequence of Mitogen-activated protein kinase 8 (P45983 whole entry): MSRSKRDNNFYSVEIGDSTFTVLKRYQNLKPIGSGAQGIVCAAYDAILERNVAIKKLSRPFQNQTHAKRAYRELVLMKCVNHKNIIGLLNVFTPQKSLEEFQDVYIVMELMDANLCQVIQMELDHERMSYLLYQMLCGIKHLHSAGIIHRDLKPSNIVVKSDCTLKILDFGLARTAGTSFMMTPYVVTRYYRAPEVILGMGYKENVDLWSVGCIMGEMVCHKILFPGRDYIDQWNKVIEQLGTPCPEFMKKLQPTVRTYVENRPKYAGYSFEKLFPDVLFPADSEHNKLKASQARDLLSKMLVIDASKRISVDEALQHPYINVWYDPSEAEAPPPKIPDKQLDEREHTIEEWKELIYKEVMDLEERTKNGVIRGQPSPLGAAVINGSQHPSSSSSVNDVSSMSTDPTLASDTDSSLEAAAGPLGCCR
Sequence of Serine/threonine-protein kinase 26 (Q9P289 2-416 limits assumed): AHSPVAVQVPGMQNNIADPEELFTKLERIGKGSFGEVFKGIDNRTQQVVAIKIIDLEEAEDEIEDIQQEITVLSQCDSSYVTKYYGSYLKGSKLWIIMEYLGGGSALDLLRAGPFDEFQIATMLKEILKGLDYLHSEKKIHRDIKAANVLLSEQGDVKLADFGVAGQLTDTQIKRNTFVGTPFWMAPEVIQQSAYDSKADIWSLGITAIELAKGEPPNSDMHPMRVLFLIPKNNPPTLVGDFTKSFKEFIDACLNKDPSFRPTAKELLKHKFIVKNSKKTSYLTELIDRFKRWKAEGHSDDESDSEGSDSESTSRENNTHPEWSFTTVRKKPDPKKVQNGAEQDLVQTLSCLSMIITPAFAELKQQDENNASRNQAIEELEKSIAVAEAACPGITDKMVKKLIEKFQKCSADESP

With `N#Cc1cccc(-c2c[nH]c3ncnc(N4CCOCC4)c23)c1`, in [1], the % of control was determined as 100%.

`O=C(NOC[C@H](O)CO)c1ccc(F)c(F)c1Nc1ccc(I)cc1F` displayed a % of control in assay [2] of 100%.

Consider `CNCCN1CCC(c2cc(CN(C)C(=O)c3cccc(Oc4ccccc4)c3)ccn2)CC1`, for which, in [3], the % of growth rate was -17.2%.

Consider `CN1Cc2nccc(-c3cn(C)nc3-c3ccc(F)cc3)c2C1=O`, for which, in assay [4], the % of inhibition is -2%.

Consider `C=CC(=O)Nc1cccc(C(=O)Nc2ccc(Nc3cc(-c4[nH]c(SC)nc4C)ccn3)cc2)c1`, for which the % of control in assay [5] (at 1 µM) came out at 92%; in assay [5] (at 5 µM) it was 76%.

For the compound `Cc1ccc(-c2ccc3c(ccc4sc5c(c43)NC[C@@H](C)NC5=O)n2)cn1`, the % of inhibition in [6] was 5%.

With `O[C@H]1CC[C@H](Nc2ncc3nc(Nc4c(F)cc(F)cc4F)n([C@H]4CCOC4)c3n2)CC1`, the % of control was 82% in assay [7] and 96% in [8].

Consider `CCC(=O)N1CCN(c2ccc(-n3c(=O)ccc4cnc5ccc(-c6cnc7ccccc7c6)cc5c43)cc2C(F)(F)F)CC1`, for which the % of control in assay [9] stood at 79%; in [10], 46%.

On to `CC(C)(O)[C@H](F)CN1Cc2cc(NC(=O)c3cnn4cccnc34)c(N3CCOCC3)cc2C1=O`, for which the dTM in assay [11] was -1.2 K.
